Experimental findings from patent US6277851A, “Bicyclic amino-pyrazinone compounds” (priority 1999, dated 2001) are described below.

SMILES strings stand for the structures. Counter-ions that a name gives are not always drawn.

For test [1], the system named is dog plasma. Kind of test: Anti-coagulant activity after administration per os to dogs, ACT. Type of test: in vivo. Conditions: p.o. As for the experimental part: (§1) […] The coagulation times (TT, ACT) are determined from dog plasma samples 10 minutes before and 30 min, 1 hour, 2 hours, 4 hours and 6 hours after administration of the products.
For a further test, the target named is T1, human thrombin (Homo sapiens, UniProt P00734).
T1 construct: purchased Sigma
Kind of test: Inhibition of human thrombin (fibrinogen substrate, fibrin formation). The conditions noted are these: human thrombin 0.7 nM, 10 min preincubation, 20° C., pH 7.4. Type of test: biochemical. As for the experimental part: Inhibitors, enzymes and substrates are diluted in the same buffer ([…] phosphate buffer, pH 7.4, containing 0.12 M sodium chloride and 0.05% of bovine serum albumin) and then distributed on a polystyrene microtitre plate in a volume of 50 μl. The fibrin formed by the thrombin or by the paranitroanilide released by the action of the serine protease is measured using a spectrophotometer at 405 nm after from 15 to 30 minutes' reaction at 20° C. Table 2 below gives in nM the concentration of the compounds that inhibits 50% of the enzymatic activity (IC50) of the thrombin compared with the control without product.

The subject of test [2] is human plasma. Kind of test: Anti-coagulant activity, activated cephalin time (ACT) in human plasma. Type of test: biochemical. The conditions noted are these: 37° C. As for the experimental part:
(§2) In order to evaluate the anti-coagulant activity of the compounds of the invention, the thrombin time (TT) and activated cephalin time (ACT) were determined from human plasma samples. An ST4 coagulometer (Diagnostica Stago, France) was used. Plasma, deficient in platelets and lyophilised (Stago), is taken up in distilled water. The TT is obtained using the reagent Prest Thrombin and the ACT using the reagent PTT Automate […]. […] Under those conditions, the TT is of the order of 18 seconds and the ACT is of the order of 12 seconds. The activity of an antagonist is evaluated by its capacity to prolong the TT and the ACT relative to the control. The effect of the inhibitors is expressed by the concentration in μM that doubles the coagulation time (Ctt2).

Test [3] concerns human plasma. Kind of test: Anti-coagulant activity, thrombin time (TT) in human plasma. Type of test: biochemical. The conditions noted are these: 37° C. As for the experimental part:
as §2

Test [4] has as its system dog plasma. Kind of test: Anti-coagulant activity after administration per os to dogs, TT. Type of test: in vivo. The conditions noted are these: p.o. As for the experimental part:
as §1

A further test has as its target t-PA (Homo sapiens, UniProt P00750). The test can be described thus: Inhibition of fibrinolysis serine proteases: t-PA. Conditions: fibrinolysis protease. Type of test: biochemical. As for the experimental part:
(§3) Inhibitors, enzymes and substrates are diluted in the same buffer ([…] phosphate buffer, pH 7.4, containing 0.12 M sodium chloride and 0.05% of bovine serum albumin) and then distributed on a polystyrene microtitre plate in a volume of 50 μl. The fibrin formed by the thrombin or by the paranitroanilide released by the action of the serine protease is measured using a spectrophotometer at 405 nm after from 15 to 30 minutes' reaction at 20° C. Table 3 below gives in nM the concentration of the compounds that inhibits 50% of the enzymatic activity (IC50) of the fibrinolysis proteases.

The next test deals with T2, human plasmin (Homo sapiens, UniProt P00747).
T2 construct: purchased Stago
Kind of test: Inhibition of fibrinolysis serine proteases: plasmin. Type of test: biochemical. Conditions: human plasmin 2 nM, substrate S 2403 0.50 mM, 20° C., pH 7.4. As for the experimental part:
as §3

The next test addresses uPA (Homo sapiens, UniProt P00749). Kind of test: Inhibition of fibrinolysis serine proteases: uPA. Type of test: biochemical. Conditions: fibrinolysis protease. As for the experimental part:
as §3

T2 sequence (P00747 581-810 limits assumed): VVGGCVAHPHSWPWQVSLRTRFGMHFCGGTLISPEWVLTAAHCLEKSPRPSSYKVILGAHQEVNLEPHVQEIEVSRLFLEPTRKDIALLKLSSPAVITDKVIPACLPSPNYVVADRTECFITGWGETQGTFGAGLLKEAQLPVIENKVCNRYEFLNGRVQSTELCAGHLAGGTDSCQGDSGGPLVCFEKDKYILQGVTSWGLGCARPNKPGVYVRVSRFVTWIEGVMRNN
Sequence of t-PA (P00750 36-562): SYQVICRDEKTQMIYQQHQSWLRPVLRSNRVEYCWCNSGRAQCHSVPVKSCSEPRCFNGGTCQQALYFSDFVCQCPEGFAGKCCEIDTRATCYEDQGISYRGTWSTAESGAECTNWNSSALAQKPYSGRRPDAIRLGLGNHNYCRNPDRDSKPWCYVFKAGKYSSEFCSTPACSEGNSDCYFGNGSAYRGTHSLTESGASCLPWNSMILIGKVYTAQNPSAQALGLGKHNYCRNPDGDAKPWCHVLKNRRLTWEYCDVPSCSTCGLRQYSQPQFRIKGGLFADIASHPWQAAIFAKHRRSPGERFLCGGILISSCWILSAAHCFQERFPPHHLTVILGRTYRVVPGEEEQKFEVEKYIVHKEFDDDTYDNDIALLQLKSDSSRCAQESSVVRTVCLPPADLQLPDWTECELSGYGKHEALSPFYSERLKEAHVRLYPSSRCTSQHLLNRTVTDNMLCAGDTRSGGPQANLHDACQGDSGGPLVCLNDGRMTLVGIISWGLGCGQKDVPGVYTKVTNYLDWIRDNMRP

With `Cc1nc(N)ccc1CNC(=O)[C@@H]1CCc2cnc(NCC(c3ccccc3)c3ccccn3)c(=O)n21` (single isomer, unassigned) [Example 20], the “Maximum ACT increase (number of times by which the initial time has been increased)” value (shortened to “Maximum ACT increase”) in the test on dog plasma [1] (3 mg/kg) turned out to be 1.4 times. In addition, the IC50 against human thrombin is 6 nM. Also, the “ACT Ctt2 (concentration that doubles the coagulation time)” value (“ACT Ctt2” below) with human plasma [2] turned out to be 2.17 µM. Further, the “TT Ctt2 (concentration that doubles the coagulation time)” value (from here on “TT Ctt2”) in the test with human plasma [3] is 0.15 µM. Also, in the test with dog plasma [4] (3 mg/kg), the “Maximum TT increase (number of times by which the initial time has been increased)” value (from here on “Maximum TT increase”) is listed as 4.4 times.
Regarding `Cc1nc(N)ccc1CNC(=O)[C@@H]1CCc2cnc(NCCc3ccccc3)c(=O)n21` [Example 1, (6S)-N-[(6-Amino-2-methyl-3-pyridyl)methyl]-4-oxo-3-(2-phenethylamino)-4,6,7,8-tetrahydropyrrolo[1,2-a]pyrazine-6-carboxamide dihydrochloride], the concentration for half-maximal inhibition (IC50) was above 33000 nM against t-PA, above 33000 nM on human plasmin, above 33000 nM against uPA and 34 nM on human thrombin. The “Maximum ACT increase” value in the test on dog plasma [1] (3 mg/kg) stood at 1.6 times. Besides, the “ACT Ctt2” value with human plasma [2] turned out to be 9.1 µM. In addition, the “TT Ctt2” value in the test with human plasma [3] came out at 3 µM. For the same compound, the “Maximum TT increase” value with dog plasma [4] (3 mg/kg) came out at 3.6 times.
As to `Cc1nc(N)ccc1CNC(=O)[C@@H]1CCc2cnc(NCC(c3ccccc3)c3ccccc3)c(=O)n21.Cl.Cl` [Example 6, (6S)-N-[(6-Amino-2-methyl-3-pyridyl)methyl]-3-[(2,2-diphenylethyl)amino]-4-oxo-4,6,7,8-tetrahydropyrrolo[1,2-a]pyrazine-6-carboxamide dihydrochloride], the IC50 is above 33000 nM against t-PA, above 33000 nM on human plasmin, above 33000 nM on uPA and 11 nM against human thrombin. Besides, the “Maximum ACT increase” value in the test on dog plasma [1] (10 mg/kg) is 1.7 times. Further, the “ACT Ctt2” value in the test on human plasma [2] was 2.5 µM. In addition, in the test with human plasma [3], the “TT Ctt2” value is 0.4 µM. Also, the “Maximum TT increase” value with dog plasma [4] (10 mg/kg) is listed as 6.2 times.
As for `COc1ccc(CCNc2ncc3n(c2=O)[C@H](C(=O)NCc2ccc(N)nc2C)CC3)cc1OC.Cl.Cl.O` [Example 7, (6S)-N-[(6-Amino-2-methyl-3-pyridyl)methyl]-3-[(3,4-dimethoxyphenethyl)amino]-4-oxo-4,6,7,8-tetrahydropyrrolo[1,2-a]pyrazine-6-carboxamide dihydrochloride monohydrate], the IC50 was above 33000 nM on t-PA, above 33000 nM at human plasmin, above 33000 nM against uPA and 42 nM on human thrombin. For the same compound, the “Maximum ACT increase” value in the test with dog plasma [1] (3 mg/kg) is recorded as 1.4 times. In addition, the “ACT Ctt2” value in the test on human plasma [2] is 9.1 µM. Also, the “TT Ctt2” value with human plasma [3] worked out at 3 µM. Also, the “Maximum TT increase” value with dog plasma [4] (3 mg/kg) is 2.5 times.
`Cc1nc(N)ccc1CNC(=O)[C@@H]1CCc2cnc(NCCc3ccccn3)c(=O)n21.Cl.Cl.Cl` [Example 15, (6S)-N-[(6-Amino-2-methyl-3-pyridyl)methyl]-4-oxo-3-[2-(2-pyridyl)ethylamino]-4,6,7,8-tetrahydropyrrolo[1,2-a]pyrazine-6-carboxamide trihydrochloride]: the IC50 against t-PA was above 33000 nM; against human plasmin, above 33000 nM; at uPA, above 33000 nM; against human thrombin, 7 nM. Also, the “Maximum ACT increase” value with dog plasma [1] (3 mg/kg) is on record as 1.6 times. Further, the “ACT Ctt2” value with human plasma [2] was 1.3 µM. Besides, the “TT Ctt2” value with human plasma [3] stood at 0.11 µM. In the test on dog plasma [4] (3 mg/kg), the “Maximum TT increase” value amounted to 7 times.
Take `Cc1nc(N)ccc1CNC(=O)[C@@H]1CCc2cnc(NCCc3cccnc3)c(=O)n21.Cl.Cl.Cl` [Example 16, (6S)-N-[(6-Amino-2-methyl-3-pyridyl)methyl]-4-oxo-3-[2-(3-pyridyl)ethylamino]-4,6,7,8-tetrahydropyrrolo[1,2-a]pyrazine-6-carboxamide trihydrochloride]: the “Maximum ACT increase” value with dog plasma [1] (10 mg/kg) worked out at 2.4 times. Further, the 50% inhibitory concentration (IC50) against human thrombin turned out to be 17 nM. Also, the “ACT Ctt2” value in the test with human plasma [2] worked out at 1.6 µM. Further, the “TT Ctt2” value with human plasma [3] is 0.17 µM. In addition, the “Maximum TT increase” value with dog plasma [4] (10 mg/kg) is 13.3 times.
Regarding `Cc1nc(N)ccc1CNC(=O)[C@@H]1CCc2cnc(NCC(c3ccccn3)c3ccccn3)c(=O)n21.Cl.Cl.Cl.Cl` [Example 22, (6S)-N-[(6-Amino-2-methyl-3-pyridyl)methyl]-3-[2,2-di-(2-pyridyl)ethylamino]-4-oxo-4,6,7,8-tetrahydropyrrolo[1,2-a]pyrazine-6-carboxamide tetrahydrochloride], in the test on dog plasma [1] (10 mg/kg), the “Maximum ACT increase” value is 1.5 times. This compound also gave an IC50 against human thrombin of 20 nM. Moreover, in the test with human plasma [2], the “ACT Ctt2” value stood at 3.07 µM. For the same compound, the “TT Ctt2” value in the test with human plasma [3] worked out at 0.22 µM. For the same compound, the “Maximum TT increase” value with dog plasma [4] (10 mg/kg) came to 4.5 times.
The compound `COc1ccc(C(CNc2ncc3n(c2=O)[C@H](C(=O)NCc2ccc(N)nc2C)CC3)c2ccc(OC)cc2)cc1.Cl.Cl` [Example 23, (6S)-N-[(6-Amino-2-methyl-3-pyridyl)methyl]-3-[2,2-bis-(4-methoxy-phenyl)ethylamino]-4-oxo-4,6,7,8-tetrahydropyrrolo[1,2-a]pyrazine-6-carboxamide dihydrochloride] showed an IC50 on human thrombin of 3.9 nM. In addition, the “ACT Ctt2” value in the test on human plasma [2] came to 2.75 µM. Further, in the test on human plasma [3], the “TT Ctt2” value amounted to 0.24 µM.
Regarding `Cc1nc(N)ccc1CNC(=O)[C@@H]1CCc2cnc(NCC3c4ccccc4CCc4ccccc43)c(=O)n21` [Example 40, (6S)-N-[(6-Amino-2-methyl-3-pyridyl)methyl]-3-[(10,11-dihydro-5H-dibenzo[a,d]cyclohepten-5-yl)methylamino]-4-oxo-4,6,7,8-tetrahydropyrrolo[1,2-a]pyrazine-6-carboxamide dihydrochloride], at human thrombin, the IC50 is 43 nM.
On the same count and under the same terms, in the case of `Cc1nc(N)ccc1CNC(=O)[C@@H]1CCc2cnc(NCCc3cccc4ccccc34)c(=O)n21` [Example 50, (6S)-N-[(6-Amino-2-methyl-3-pyridyl)methyl]-3-[2-(1-naphthyl)ethylamino]-4-oxo-4,6,7,8-tetrahydropyrrolo[1,2-a]pyrazine-6-carboxamide dihydrochloride] it was 29 nM.
Consider `Cc1cc(CNC(=O)[C@@H]2CCc3cnc(NCCc4ccccn4)c(=O)n32)c(C)nc1N.Cl.Cl.Cl` [Example 68, (6S)-N-[(6-Amino-2,5-dimethyl-3-pyridyl)methyl]-3-[2-(2-pyridyl)ethylamino]-4-oxo-4,6,7,8-tetrahydropyrrolo[1,2-a]pyrazine-6-carboxamide trihydrochloride], for which the IC50 on human thrombin came to 16 nM. The “ACT Ctt2” value in the test on human plasma [2] was found to be 2.04 µM. Further, the “TT Ctt2” value in the test with human plasma [3] stood at 0.23 µM.
As to `CCNC(=O)COc1ccccc1CNC(=O)[C@@H]1CCc2cnc(NCCc3ccccc3)c(=O)n21` [Example 71, (6S)-N-[(2-Ethylcarbamoylmethoxy)benzyl]-4-oxo-3-(2-phenethylamino)-4,6,7,8-tetrahydropyrrolo [1,2-a]pyrazine-6-carboxamide], the IC50 against t-PA is above 33000 nM; against human plasmin, above 33000 nM; against uPA, above 33000 nM; against human thrombin, 13 nM.
On human thrombin, `CCNC(=O)COc1ccccc1CNC(=O)[C@@H]1CCc2cnc(NCC(c3ccccc3)c3ccccc3)c(=O)n21` [Example 103, (6S)-N-[(2-Ethylcarbamoylmethoxy)-benzyl]-4-oxo-3-(2,2-diphenylethylamino)-4,6,7,8-tetrahydropyrrolo[1,2-a]pyrazine-6-carboxamide hydrochloride] came in with an IC50 of 14 nM. This lies in the double-digit nanomolar range.

One may read the IC50 as the concentration at which inhibition is half-maximal. A higher IC50 goes with a need for much substance.
